Read-outs that look alike come from different tables or passages of the source.
Columns and labels:
[1] = system: HBV (3TC-resistant virus: rtV204) in HepAD79 cells; assay: microbe, parasite or virus in culture; format: cell-based; settings: for HepAD79 log10 inhibition at 10 μM: HBV DNA in supernatant; for FI EC90 AD79/EC90 AD38: fold increase, EC90 HepAD79 over EC90 HepAD38
Experimental: (§1) HepAD38 and HepAD79 cells were seeded at 5×10^4 cells/well in a 96-well plate in seeding medium (DMEM/F12+10% FBS, 50 μg/ml penicillin, 50 μg/ml streptomycin, 100 μg/ml kanamycin, 400 μg/ml G418, and 0.3 μg/ml tetracycline) and incubated for 2 days at 37° C. in a 5% CO2, humidified atmosphere. The seeding media was removed, and cells were washed 3 times with PBS. Cells were then incubated with 200 μL assay medium (DMEM/F12+10% FBS+P/S/K) containing either (i) no compound, (ii) test compound, or (iii) control drugs at 10 μM. After an additional 5-day (HepAD38) or 13-day incubation (HepAD79, with renewal of the culture media at day 7), the cell supernatant was collected and stored at −70° C. until HBV DNA was quantified.
(§2) HBV DNA was extracted from supernatant using QiaAmp DNA blood Mini kit (Qiagen) and nucleic acids eluted in 200 μl Viral DNA was detected by quantitative PCR (Q-PCR). The TaqMan probe and primers were designed using the Primer Express software (Applied Biosystems) and cover highly conserved sequences complementary to the DNA sequences present in HBsAg. A total of 5 μl DNA was amplified using reagents and conditions as described by the manufacturer (Applied Biosystems).
Subsequently, the time course of viral induction in HepAD79 cells over a 13-day incubation period was investigated.
Therefore, the DNA extracted from the cell supernatant was also amplified by Q-PCR for the presence of cellular DNA (the rRNA gene).

[2] = system: HBV (wild-type virus: rtM204) in HepAD38 cells; assay: Suppression of HBV production in HepAD38 cells, viral DNA in supernatant by Q-PCR; format: cell-based; settings: for HepAD38 log10 inhibition at 10 μM: HBV DNA in supernatant; for EC90: read-out: HepAD38 EC90
Source text: The HepAD38 (wild-type virus: rtM204) and HepAD79 (3TC-resistant virus: rtV204) (Stuyver L. J. et al. 2001, Hepatol., 33:751-757) cell lines replicate HBV under conditions that can be regulated with tetracycline (King R. W. et al. 2000, Methods in Molecular Medicine, Vol 24: Antiviral Methods and Protocols, 43-50 (eds: D. Kinchington & R. F. Schinazi), Humana Press Inc, Totowa, N.J.); Ladner, et al. 1997, Antimicrob. Agents Chemother., 41:1715-1720; Ladner S. K., et al. 1998a. Antivir. Chem. Chemother., 9:65-72; Ladner S. K., et al. 1998b. Antimicrob. Agents Chemother., 42:2128-31). In the presence of this drug, the cell supernatant is virtually free of viral DNA, but upon the removal of tetracycline from the culture medium, these cells secrete virus-like particle into the supernatant.
as §1
as §2, with “Biosystems). […]” for “Biosystems).”

HepG2 cells [3] = assay: Lactic acid production in HepG2 cells; format: cell-based, human; settings: HepG2, up to 100 μM, 14 days
Experimental: (§3) In addition, these compounds were also tested in the HepG2 cell line (14-day treatment, 100 μM) for their ability to reduce mitochondrial DNA levels (using a newly designed normalized Q-PCR protocol as described in Stuyver, L. J., et al. 2002, Antimicrob. Agents Chemother., 46:3854-3860) or lactic acid production.

[4] = system: HepG2 cells (mitochondrial COXII DNA); settings: for effect on mitochondrial DNA levels (in words): HepG2, up to 100 μM
HepG2 cells [5] = assay: Cell growth of HepG2 cells during 14-day treatment; format: cell-based, human; settings: HepG2, up to 100 μM, 14 days
Experimental: as §3

[6] = HepAD79 cells, 13-day incubation
[7] = HepAD38 cells, 5-day incubation
[8] = HepAD79 cells, 13-day incubation, read-out: HepAD79 EC90
[9] = HepG2, 14-day treatment, 100 μM
[10] = HepAD38 cells, 5-day incubation, concentration reducing viral load by 90%, unit printed in text only

SMILES | HepAD79 log10 inhibition at 10 μM [1, 6] | HepAD38 log10 inhibition at 10 μM [2, 7] | total lactic acid production (in words) (HepG2 cells [3]) | EC90 [1, 8] | FI EC90 AD79/EC90 AD38 [1] | Average ΔCt ± s.d. MitCoxII ([4]; HepG2, 14-day treatment, 1 μM) | Average ΔCt ± s.d. rDNA ([4]; HepG2, 14-day treatment, 1 μM) | Average ΔΔCt ± s.d. MitCOXII-rDNA ([4]; HepG2, 14-day treatment, 1 μM) | Fold difference in COXII DNA levels normalized for rDNA (range) relative to control ([4]; HepG2, 14-day treatment, 1 μM) | Average ΔCt ± s.d. MitCoxII ([4]; HepG2, 14-day treatment, 10 μM) | Average ΔCt ± s.d. rDNA ([4]; HepG2, 14-day treatment, 10 μM) | Average ΔΔCt ± s.d. MitCOXII-rDNA ([4]; HepG2, 14-day treatment, 10 μM) | Fold difference in COXII DNA levels normalized for rDNA (range) relative to control ([4]; HepG2, 14-day treatment, 10 μM) | Average ΔCt ± s.d. MitCoxII [4, 9] | Average ΔCt ± s.d. rDNA [4, 9] | Average ΔΔCt ± s.d. MitCOXII-rDNA [4, 9] | Fold difference in COXII DNA levels normalized for rDNA (range) relative to control [4, 9] | effect on mitochondrial DNA levels (in words) ([4]; 14 days) | EC90 [2, 10] | effect on cell growth (in words) (HepG2 cells [5]) | other results
Nc1ncnc2c1ncn2CCOCP(=O)(O)O [Adefovir] | 0.91 ± 0.11 log10 | 0.72 ± 0.12 log10 | – | – | – | – | – | – | – | – | – | – | – | – | – | – | – | – | – | – | EC90 ([1]; Hepatitis B virus, 312 h, read-out: HepAD79 EC90, HepAD79 cells, 13-day incubation): > 10000 nM; EC90 ([1]; read-out: HepAD79 EC90, HepAD79 cells, 13-day incubation): ~10000 nM; EC90 ([2]; Hepatitis B virus, HePAD38, 120 h): > 10000 nM
Nc1ccn([C@@H]2C=C(F)[C@H](CO)O2)c(=O)n1 [L-3′F-D4C, β-L-3′-fluoro-2′,3′--didehydro-2′, 3′--dideoxycytadine] | 1.65 ± 0.24 log10 | 2.68 ± 0.44 log10 | no increase in total lactic acid production | 2300 nM | 10.5 | 0.13 ± 0.16 | 0.08 ± 0.25 | 0.05 ± 0.26 | 0.96 (1.16-0.80) | 0.39 ± 0.15 | −0.11 ± 0.38 | 0.49 ± 0.51 | 0.71 (1.02-0.50) | 0.20 ± 0.20 | −0.28 ± 0.14 | 0.48 ± 0.13 | 0.72 (0.79-0.65) | no reductions in mitochondrial DNA levels | 220 ± 150 nM | did not show any reduction in cell growth | EC90 ([2]; HepAD38 cells, 5-day incubation, concentration reducing viral load by 90%, unit printed in text only, listed as L-3F-D4C): 250 nM
Nc1nc(=O)n([C@@H]2C=C(F)[C@H](CO)O2)cc1F [L-3′F-D4FC, β-L-3′-fluoro-2′,3′-didehydro-2′,3′-dideoxy-5-fluorocytidine] | 1.56 ± 0.40 log10 | 2.8 ± 0.09 log10 | no increase in total lactic acid production | 3100 nM | 14.1 | 0.00 ± 0.13 | −0.46 ± 0.06 | 0.35 ± 0.01 | 0.78 (0.79-0.78) | 0.23 ± 0.13 | −0.10 ± 0.06 | 0.33 ± 0.10 | 0.80 (0.85-0.74) | −0.52 ± 0.28 | −0.94 ± 0.16 | 0.42 ± 0.13 | 0.75 (0.82-0.68) | no reductions in mitochondrial DNA levels | 220 ± 140 nM | did not show any reduction in cell growth | EC90 ([2]; HepAD38 cells, 5-day incubation, concentration reducing viral load by 90%, unit printed in text only, listed as L-3F-D4FC): 250 nM
Nc1ccn([C@H]2O[C@@H](CO)C=C2F)c(=O)n1 [L-2′F-D4C] | 0.33 log10 | 1.77 ± 0.13 log10 | – | > 10000 nM | – | – | – | – | – | −0.36 ± 0.02 | −0.06 ± 0.27 | −0.30 ± 0.28 | 1.23 (1.02-1.50) | 0.33 ± 0.21 | 0.53 ± 0.60 | −0.20 ± 0.40 | 1.15 (0.87-1.52) | – | 740 nM | – | activity against the mutant virus (in words) ([1]; rtV204 mutant virus): completely inactive; inhibition of wild type HBV (in words) ([2]; wild type HBV): potent inhibitors
Nc1ccn([C@H]2CC[C@@H](CO)O2)c(=O)n1 [ddC, 2′,3′-dideoxycytidine] | – | – | – | – | – | – | – | – | – | 7.70 ± 0.08 | 0.92 ± 0.52 | – | – | – | – | – | – | – | – | – | Average ΔΔCt ± s.d. MitCOXII-rDNA ([4]; human, 14 days, 10 μM): 6.78 ± 0.56; Fold difference in COXII DNA levels normalized for rDNA (range) relative to control ([4]; human, 14 days, 10 μM): 0.01 (0.01-0.01)
